Test results as given in patent US20140058103A1, “Inhibitors of PI3K-Delta and Methods of Their Use and Manufacture” (Exelixis, Inc., priority 2010, published 2014).

Molecular target: PI3K delta (Homo sapiens, UniProt O00329)
Test: Luciferase-coupled chemiluminescence kinase assay (ATP consumption, KinaseGlo)
Assay type: biochemical
How it was run: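 Compound, kinase and ATP (≤ KM) reacted 2 h at ambient temperature, then remaining ATP quantified with luciferase-luciferin (KinaseGlo) luminescence as percent consumed.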

PI3K delta, sequence (O00329 whole entry): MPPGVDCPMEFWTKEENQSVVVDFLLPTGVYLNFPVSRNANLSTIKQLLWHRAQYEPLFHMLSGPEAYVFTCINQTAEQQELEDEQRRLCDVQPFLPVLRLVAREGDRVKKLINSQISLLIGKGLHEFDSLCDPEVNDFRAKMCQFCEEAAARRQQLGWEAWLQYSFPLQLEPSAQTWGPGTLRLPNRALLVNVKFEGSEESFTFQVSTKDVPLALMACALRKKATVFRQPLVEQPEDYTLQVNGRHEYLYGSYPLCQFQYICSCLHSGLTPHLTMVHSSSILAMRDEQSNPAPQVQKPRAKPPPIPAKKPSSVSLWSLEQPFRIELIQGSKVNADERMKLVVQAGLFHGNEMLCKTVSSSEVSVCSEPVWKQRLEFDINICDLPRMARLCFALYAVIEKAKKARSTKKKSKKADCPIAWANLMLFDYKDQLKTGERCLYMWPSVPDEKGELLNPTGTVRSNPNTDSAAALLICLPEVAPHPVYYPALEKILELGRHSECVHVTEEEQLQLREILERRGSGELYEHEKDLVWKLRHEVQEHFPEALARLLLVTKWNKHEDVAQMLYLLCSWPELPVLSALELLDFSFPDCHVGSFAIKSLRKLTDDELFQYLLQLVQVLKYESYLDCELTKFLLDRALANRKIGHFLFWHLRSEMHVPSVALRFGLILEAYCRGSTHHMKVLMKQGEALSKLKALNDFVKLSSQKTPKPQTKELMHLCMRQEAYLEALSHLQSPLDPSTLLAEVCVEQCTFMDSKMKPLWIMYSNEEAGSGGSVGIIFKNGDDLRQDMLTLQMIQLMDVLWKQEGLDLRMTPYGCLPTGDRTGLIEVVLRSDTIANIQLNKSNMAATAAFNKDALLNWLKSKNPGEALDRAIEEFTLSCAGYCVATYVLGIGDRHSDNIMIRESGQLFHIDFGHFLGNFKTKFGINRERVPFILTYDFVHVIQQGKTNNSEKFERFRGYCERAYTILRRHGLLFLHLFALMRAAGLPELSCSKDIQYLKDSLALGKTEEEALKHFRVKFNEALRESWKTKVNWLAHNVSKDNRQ
PI3K delta, sequence (P27986 whole entry partner): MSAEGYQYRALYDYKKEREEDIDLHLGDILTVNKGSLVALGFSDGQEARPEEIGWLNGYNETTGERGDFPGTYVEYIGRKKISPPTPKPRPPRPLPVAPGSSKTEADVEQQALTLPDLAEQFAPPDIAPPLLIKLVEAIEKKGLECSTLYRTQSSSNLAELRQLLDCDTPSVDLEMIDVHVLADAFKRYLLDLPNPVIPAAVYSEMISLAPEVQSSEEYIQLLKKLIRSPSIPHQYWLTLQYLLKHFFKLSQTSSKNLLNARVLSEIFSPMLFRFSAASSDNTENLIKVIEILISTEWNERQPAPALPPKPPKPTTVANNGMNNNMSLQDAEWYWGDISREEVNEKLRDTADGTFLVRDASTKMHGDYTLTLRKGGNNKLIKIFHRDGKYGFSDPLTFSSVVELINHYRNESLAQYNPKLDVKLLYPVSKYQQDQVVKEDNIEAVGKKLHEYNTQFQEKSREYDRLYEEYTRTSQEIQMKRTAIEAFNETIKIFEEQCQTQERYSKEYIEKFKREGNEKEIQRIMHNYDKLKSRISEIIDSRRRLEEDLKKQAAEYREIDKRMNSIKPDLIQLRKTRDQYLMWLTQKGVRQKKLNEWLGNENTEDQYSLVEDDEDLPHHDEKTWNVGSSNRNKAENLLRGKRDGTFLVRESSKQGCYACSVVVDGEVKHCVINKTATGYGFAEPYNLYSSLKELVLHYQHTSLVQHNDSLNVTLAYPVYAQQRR

| Compound | IC50 |
| --- | --- |
| Cn1cc(-c2nc3c(N4CCC(n5c(=O)[nH]c6cnccc65)CC4)ncnc3n2C)cn1 [Compound 341, 1-{1-[9-methyl-8-(1-methyl-1H-pyrazol-4-yl)-9H-purin-6-yl]piperidin-4-yl}-1,3-dihydro-2H-imidazo[4,5-c]pyridin-2-one] | 250 to 500 nM |
| Cn1c(C(=O)NCC2CC2)nc2c(N3CCC4(CC3)CC(=O)Nc3ccccc3O4)ncnc21 [Compound 170, N-(cyclopropylmethyl)-9-methyl-6-(4-oxo-4,5-dihydro-1′H,3H-spiro[1,5-benzoxazepine-2,4′-piperidin]-1′-yl)-9H-purine-8-carboxamide] | 250 to 500 nM |
| Cn1c(C(=O)NCCc2ccc(Cl)cc2)nc2c(N3CCC(n4c(=O)[nH]c5ccccc54)CC3)ncnc21 [Compound 63, N-[2-(4-chlorophenyl)ethyl]-9-methyl-6-[4-(2-oxo-2,3-dihydro-1H-benzimidazol-1-yl)piperidin-1-yl]-9H-purine-8-carboxamide] | 500 to 1500 nM |
| CC(C)NC(=O)c1nc2c(N3CCC4(CC3)C(=O)Nc3ccccc34)ncnc2n1C [Compound 24, 9-methyl-N-(1-methylethyl)-6-(2-oxo-1,2-dihydro-1′H-spiro[indole-3,4′-piperidin]-1′-yl)-9H-purine-8-carboxamide] | 50 to 250 nM |
| Cn1c(C(=O)NCCCc2ccccc2)nc2c(N3CCC(n4c(=O)[nH]c5ccccc54)CC3)ncnc21 [Compound 65, 9-methyl-6-[4-(2-oxo-2,3-dihydro-1H-benzimidazol-1-yl)piperidin-1-yl]-N-(3-phenylpropyl)-9H-purine-8-carboxamide] | 500 to 1500 nM |
| Cn1c(C(=O)NCC2CC2)nc2c(N3CCC(O)(c4ccccc4)CC3)ncnc21 [Compound 3, N-(cyclopropylmethyl)-6-(4-hydroxy-4-phenylpiperidin-1-yl)-9-methyl-9H-purine-8-carboxamide] | 50 to 250 nM |
| COc1ccc(OC)c(S(=O)(=O)N2CCN(c3ncnc4c3nc(-c3cnn(C)c3)n4C)CC2)c1 [Compound 376, 6-(4-([2,5-bis(methyloxy)phenyl]sulfonyl}-piperazin-1-yl)-9-methyl-8-(1-methyl-1H-pyrazol-4-yl)-9H-purine] | 250 to 500 nM |
| Cn1cc(-c2nc3c(N4CCC(CN)(c5ccccc5)CC4)ncnc3n2C)cn1 [Compound 1, 1-{1-[9-methyl-8-(1-methyl-1H-pyrazol-4-yl)-9H-purin-6-yl]-4-phenylpiperidin-4-yl}methanamine] | 500 to 1500 nM |
| Cn1cc(-c2nc3c(N4CCN(c5ccccc5S(C)(=O)=O)CC4)ncnc3n2C)cn1 [Compound 350, 9-methyl-8-(1-methyl-1H-pyrazol-4-yl)-6-{4-[2-(methylsulfonyl)phenyl]piper-azin-1-yl}-9H-purine] | 500 to 1500 nM |
| Cn1c(C(=O)NC2CCOCC2)nc2c(N3CCC4(CC3)C(=O)Nc3ccccc34)ncnc21 [Compound 86, 9-methyl-6-(2-oxo-1,2-dihydro-1′H-spiro[indole-3,4′-piperidin]-1′-yl)-N-(tetrahydro-2H-pyran-4-yl)-9H-purine-8-carboxamide] | 50 to 250 nM |
| COc1ccc(S(=O)(=O)N2CCN(c3ncnc4c3nc(-c3cnn(C)c3)n4C)CC2)cc1OC [Compound 387, 6-(4-{[3,4-bis(methyloxy)phenyl]sulfonyl}-piperazin-1-yl)-9-methyl-8-(1-methyl-1H-pyrazol-4-yl)-9H-purine] | 500 to 1500 nM |
| Cn1c(C(=O)NCC2CC2)nc2c(N3CCC(C#N)(c4ccccc4)CC3)ncnc21 [Compound 275, 6-(4-cyano-4-phenylpiperidin-1-yl)-N-(cyclopropylmethyl)-9-methyl-9H-purine-8-carboxamide] | 50 to 250 nM |
| Cn1cc(-c2nc3c(N4CCN(c5ccccc5CNS(=O)(=O)c5ccc6ccccc6c5)CC4)ncnc3n2C)cn1 [Compound 364, N-[(2-{4-[9-methyl-8-(1-methyl-1H-pyrazol-4-yl)-9H-purin-6-yl]piperazin-1-yl}phenyl)methyl]naphthalene-2-sulfonamide] | 500 to 1500 nM |
| Cc1nnc(-c2nc3c(N4CCC(n5c(=O)[nH]c6ccccc65)CC4)ncnc3n2C)o1 [Compound 102, 1-{1-[9-methyl-8-(5-methyl-1,3,4-oxadiazol-2-yl)-9H-purin-6-yl]piperidin-4-yl}-1,3-dihydro-2H-benzimidazol-2-one] | 50 to 250 nM |
| CCCCNC(=O)c1nc2c(N3CCC4(CC3)C(=O)Nc3ccccc34)ncnc2n1C [Compound 16, N-butyl-9-methyl-6-(2-oxo-1,2-dihydro-1′H-spiro[indole-3,4′-piperidin]-1′-yl)-9H-purine-8-carboxamide] | 50 to 250 nM |
| Cn1c(-c2ccc(O)nc2)nc2c(N3CCC(n4c(=O)[nH]c5ccccc54)CC3)ncnc21 [Compound 300, 1-{1-[8-(6-hydroxypyridin-3-yl)-9-methyl-9H-purin-6-yl]piperidin-4-yl}-1,3-dihydro-2H-benzimidazol-2-one] | 500 to 1500 nM |
| Cn1c(-c2ccnnc2)nc2c(N3CCC(n4c(=O)[nH]c5ccccc54)CC3)ncnc21 [Compound 280, 1-[1-(9-methyl-8-pyridazin-4-yl-9H-purin-6-yl)piperidin-4-yl]-1,3-dihydro-2H-benzimidazol-2-one] | 50 to 250 nM |
| Cn1c(C(=O)NCc2ccco2)nc2c(N3CCC(n4c(=O)[nH]c5ccccc54)CC3)ncnc21 [Compound 46, N-(furan-2-ylmethyl)-9-methyl-6-[4-(2-oxo-2,3-dihydro-1H-benzimidazol-1-yl)piperidin-1-yl]-9H-purine-8-carboxamide] | 50 to 250 nM |
| CC(C)NC(=O)c1nc2c(N3CCC(n4c(=O)[nH]c5ccccc54)CC3)ncnc2n1C [Compound 54, 9-methyl-N-(1-methylethyl)-6-[4-(2-oxo-2,3-dihydro-1H-benzimidazol-1-yl)piperidin-1-yl]-9H-purine-8-carboxamide] | 50 to 250 nM |

Other lines, results leading:

| IC50 | Compound |
| --- | --- |
| < 50 nM | Cn1c(-c2cnc3[nH]ccc3c2)nc2c(N3CCC(n4c(=O)[nH]c5ccccc54)CC3)ncnc21 [Compound 302, 1-{1-[9-methyl-8-(1H-pyrrolo[2,3-b]pyridin-5-yl)-9H-purin-6-yl]piperidin-4-yl}-1,3-dihydro-2H-benzimidazol-2-one] |
| 50 to 250 nM | CCn1c(C(=O)NCCC(C)C)nc2c(N3CCC(n4c(=O)[nH]c5ccccc54)CC3)ncnc21 [Compound 198, 9-ethyl-N-(3-methylbutyl)-6-[4-(2-oxo-2,3-dihydro-1H-benzimidazol-1-yl)piperidin-1-yl]-9H-purine-8-carboxamide] |
| < 50 nM | CCCn1cc(-c2nc3c(N4CCC5(CC4)C(=O)Nc4ccccc45)ncnc3n2CC)cn1 [Compound 251, 1′-[9-ethyl-8-(1-propyl-1H-pyrazol-4-yl)-9H-purin-6-yl]spiro[indole-3,4′-piperidin]-2(1H)-one] |
| < 50 nM | CCCCNC(=O)c1nc2c(N3CCC(n4c(=O)[nH]c5ccccc54)CC3)ncnc2n1C [Compound 45, N-butyl-9-methyl-6-[4-(2-oxo-2,3-dihydro-1H-benzimidazol-1-yl)piperidin-1-yl]-9H-purine-8-carboxamide] |
| < 50 nM | CCn1c(-c2nnc(C(C)C)o2)nc2c(N3CCC4(CC3)C(=O)Nc3ccccc34)ncnc21 [Compound 209, 1′-{9-ethyl-8-[5-(1-methylethyl)-1,3,4-oxadiazol-2-yl]-9H-purin-6-yl}spiro[indole-3,4′-piperidin]-2(1H)-one] |
| 50 to 250 nM | Cn1c(C(=O)N2CC(F)(F)C2)nc2c(N3CCC(n4c(=O)[nH]c5ccccc54)CC3)ncnc21 [Compound 104, 1-(1-{8-[(3,3-difluoroazetidin-1-yl)carbonyl]-9-methyl-9H-purin-6-yl}piperidin-4-yl)-1,3-dihydro-2H-benzimidazol-2-one] |
| 50 to 250 nM | Cn1c(C(=O)NCC2CC2)nc2c(N3CCC4(CC3)C(=O)Nc3ccccc34)ncnc21 [Compound 6, N-(Cyclopropylmethyl)-9-methyl-6-(2-oxo-1,2-dihydro-1′H-spiro[indole-3,4′-piperidin]-1′-yl)-9H-purine-8-carboxamide] |
| < 50 nM | CCCCc1nnc(-c2nc3c(N4CCC(n5c(=O)[nH]c6ccccc65)CC4)ncnc3n2C)o1 [Compound 232, 1-(1-[8-(5-butyl-1,3,4-oxadiazol-2-yl)-9-methyl-9H-purin-6-yl]piperidin-4-yl)-1,3-dihydro-2H-benzimidazol-2-one] |
| < 50 nM | Cc1ncc(-c2nc3c(N4CCC(n5c(=O)[nH]c6ccccc65)CC4)ncnc3n2C)cn1 [Compound 340, 1-{1-[9-methyl-8-(2-methylpyrimidin-5-yl)-9H-purin-6-yl]piperidin-4-yl}-1,3-dihydro-2H-benzimidazol-2-one] |
| < 50 nM | Cn1c(-c2cncnc2)nc2c(N3CCC4(CC3)C(=O)Nc3ccccc34)ncnc21 [Compound 293, 1′-(9-Methyl-8-pyrimidin-5-yl-9H-purin-6-yl)spiro[indole-3,4′-piperidin]-2(1H)-one] |
| < 50 nM | Cc1ncc(-c2nc3c(N4CCC(n5c(=O)[nH]c6ccccc65)CC4)ncnc3n2C)n1C [Compound 333, 1-{1-[8-(1,2-dimethyl-1H-imidazol-5-yl)-9-methyl-9H-purin-6-yl]piperidin-4-yl)-1,3-dihydro-2H-benzimidazol-2-one] |
| < 50 nM | CCn1c(-c2cnn(C)c2)nc2c(N3CCC4(CC3)C(=O)Nc3ccccc34)ncnc21 [Compound 245, 1′-[9-ethyl-8-(1-methyl-1H-pyrazol-4-yl)-9H-purin-6-yl]spiro[indole-3,4′-piperidin]-2(1H)-one] |
| < 50 nM | Cn1cc(-c2nc3c(N4CCC(n5c(=O)[nH]c6c(F)cccc65)CC4)ncnc3n2C)cn1 [Compound 295, 4-fluoro-1-{1-[9-methyl-8-(1-methyl-1H-pyrazol-4-yl)-9H-purin-6-yl]piperidin-4-yl}-1,3-dihydro-2H-benzimidazol-2-one] |
| < 50 nM | CC(C)Cn1cc(-c2nc3c(N4CCC(n5c(=O)[nH]c6ccccc65)CC4)ncnc3n2C)cn1 [Compound 148, 1-(1-{9-methyl-8-[1-(2-methylpropyl)-1H-pyrazol-4-yl]-9H-purin-6-yl}piperidin-4-yl)-1,3-dihydro-2H-benzimidazol-2-one] |
